Laboratory results taken from patent US12570612B2, “Substituted nitrogen heterocyclic compound and anesthetic effect thereof” (priority 2019, dated 2026).
Entries after “also recorded” stand apart in the source; their conditions may differ. Like-named read-outs stand apart in the source and are kept apart here.

Experiments:
Sprague-Dawley rats [1] = assay: Pharmacological effect and adverse reactions under the equivalent dose (2ED50), Group D compounds; type: in vivo
Description: (§1) Evaluation index: onset time: from the completion of drug injection to the disappearance of forepaw righting reflex in rats; Duration of anesthesia: the time from the disappearance of rat forepaw righting reflex to the recovery of rat forepaw righting reflex; Recovery time of anesthesia: the time from the […] to complete recovery;

Sprague-Dawley rats [2] = assay: animal or person
Protocol: (§2) Adult male Sprague-Dawley rats (250-300 g) were selected for the experiment. […] The anesthesia effects of the compounds were assessed in rats using a LORR assay and a period >30 s was considered as an indicator of general anesthesia.

[3] = test system: circulatory function of rats; conditions: rat, in vivo
Protocol: First, animal models were established. […] At least one week after surgery, data were recorded.
Finally, the pharmacological effects, adverse reactions, and behavioral manifestations of the rats were observed and recorded
After data acquisition, the test was stopped.

H295R cell line [4] = assay: Adrenocortical function in vitro test: secretion of cortisol and corticosterone, Group B compounds; type: cell-based; conditions: H295R cells; for EC50: Homo sapiens, NCI-H295R, 0.1-10000 nM, HPLC-MS/MS
Sprague-Dawley rats [5] = assay: animal or person; type: in vivo; conditions: Rattus norvegicus; LORR, up and down method, tail vein, rats; brackets = 95% confidence limit; read-out: ED50
Description: Evaluating indicator: The end point of anesthesia: the disappearance of forepaw righting reflex (lorr) was used as the end point of anesthesia; General anesthesia effect: the disappearance of forepaw righting reflex in rats lasting for 30 seconds is taken as the index of general anesthesia effect; Anesthesia recovery index: the recovery of rat forepaw righting reflex was used as the index of anesthesia recovery.

[6] = test system: circulatory function of rats; assay: Circulatory function of rats (MAP, HR) by implanted telemetry, Group C compounds; conditions: 2ED50, rats, FIG. 13-16
Description: (§4) First, the animal model was established, and the left ventricular catheter, abdominal aorta catheter and electrocardiogram wire were placed. At least one week after the operation, the signal can be collected to start the test. At the beginning of the experiment, after the placement of the indwelling needle in the tail vein of rats, connect the extension tube, put the rats together with the feeding cage on the signal receiver and start collecting data. […] All compounds or drugs were given at a constant volume of 0.6 ml at a uniform rate of 0.1 ml/s.

Sprague-Dawley rats [7] = assay: animal or person; type: in vivo; conditions: Rattus norvegicus; LORR, up and down method, tail vein, rats; brackets = 95% confidence limit; read-out: ED50; remark: listed apart in the source
Description: Evaluating indicator: The end point of anesthesia: LORR was used as the end point of anesthesia; General anesthesia effect: the disappearance of forepaw righting reflex in rats lasting for 30 seconds is taken as the index of general anesthesia effect; Anesthesia recovery index: the recovery of rat forepaw righting reflex was used as the index of anesthesia recovery.

SD rats [8] = test system: SD rats
Outline: (§3)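 Adult male SD rats (250–350 g) received continuous infusion. Read-outs: time from infusion start to […]; after 1 h infusion, time from stop to return of forepaw turning reflex and to full recovery.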

[9] = test system: circulatory function of rats; conditions: rat, in vivo; remark: listed apart in the source
Sprague-Dawley rats [10] = assay: Pharmacological effect and adverse reactions under the equivalent dose (2ED50), Group C compounds; type: in vivo
Description: as §1

SD rats [11] = test system: SD rats; remark: listed apart in the source
Outline: as §3

Sprague-Dawley rats [12] = assay: Continuous infusion at 2 times the MIR for 1 hour, Group B compounds; type: in vivo
Sprague-Dawley rats [13] = type: in vivo; conditions: tail vein
Sprague-Dawley rats [14] = type: in vivo; conditions: tail vein; remark: listed apart in the source
[15] = test system: circulatory function of rats; assay: Circulatory function of rats (MAP, HR) by implanted telemetry, Group D compounds; conditions: 2ED50, rats, FIG. 19-22
Description: as §4
Evaluation indexes: Collect the blood pressure, heart rate and other data of rats during and 15 minutes after administration, and judge the effect of the compound of the invention on the circulatory function of rats with the indexes of mean arterial pressure (MAP) and heart rate (HR).

adrenal cortex function [16] = conditions: rat, in vivo
11β-Hydroxylase = molecular target: T1, 11β-Hydroxylase (Homo sapiens, UniProt P15538); conditions: cited from earlier work
T1 sequence (P15538 25-503): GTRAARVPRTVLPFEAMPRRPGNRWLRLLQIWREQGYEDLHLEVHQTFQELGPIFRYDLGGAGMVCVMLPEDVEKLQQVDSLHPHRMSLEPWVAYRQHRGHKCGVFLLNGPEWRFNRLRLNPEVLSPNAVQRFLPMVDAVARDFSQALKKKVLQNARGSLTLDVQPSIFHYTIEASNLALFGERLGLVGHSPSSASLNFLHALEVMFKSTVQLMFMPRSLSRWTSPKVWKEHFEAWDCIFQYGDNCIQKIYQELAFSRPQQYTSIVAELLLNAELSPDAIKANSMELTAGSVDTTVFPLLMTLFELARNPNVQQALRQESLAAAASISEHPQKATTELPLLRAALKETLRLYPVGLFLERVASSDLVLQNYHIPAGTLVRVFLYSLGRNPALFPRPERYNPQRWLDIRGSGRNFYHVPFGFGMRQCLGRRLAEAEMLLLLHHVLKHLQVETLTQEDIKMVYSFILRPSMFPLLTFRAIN

Sprague-Dawley rats [17] = test system: Sprague-Dawley rats
Protocol: Adult male Sprague-Dawley rats with body weight ranging from 250 to 300 gm were selected for continuous infusion test. […] Time to recovery of righting reflex from stopping infusion, and time to fully awake from stopping infusion were recorded.

H295R cell line [18] = assay: Adrenocortical function in vitro test: secretion of cortisol and corticosterone, Group A compounds; type: cell-based; conditions: H295 cells; for EC50: Homo sapiens, 0.1-10000 nM, HPLC-MS/MS
Sprague-Dawley rats [19] = assay: animal or person; remark: listed apart in the source
Protocol: as §2

adrenal cortex function [20] = conditions: rat, in vivo; remark: listed apart in the source
[21] = 2ED50, tail vein, rats, n=8, unit s
[22] = equivalent dose (2 × ED50), number of rats of n = 8
[23] = read-out: EC50 (Corticosterone)
[24] = after 1 hour continuous infusion at 2 times the MIR, SD rats
[25] = continuous infusion 2 x MIR 1 hour, rats affected/rats
[26] = continuous tail vein infusion at 2 times the MIR, SD rats
[27] = equivalent dose (2ED50), number of rats of n = 8

SMILES: CCOC(=O)c1cncn1C(C)c1ccccc1 (stereo not drawn) [Etomidate, reference compound]
- Onset time (Sprague-Dawley rats [1]; [21]): <30 s
- Adverse reaction: Convulsions (Sprague-Dawley rats [1]; [22]): 0
- Adverse reaction: Cough, broken-winded (Sprague-Dawley rats [1]; [22]): 0
- Adverse reaction: Euphoria (Sprague-Dawley rats [1]; [22]): 0
- Adverse reaction: Four limbs rigidity (Sprague-Dawley rats [1]; [22]): 2
- Adverse reaction: Slower breathing, Tetany convulsion (Sprague-Dawley rats [1]; [22]): 0
- Adverse reaction: Systemic stiffness, Convulsions, Opisthotonus (Sprague-Dawley rats [1]; [22]): 0
- Adverse reaction: Tongue stretching (Sprague-Dawley rats [1]; [22]): 4
- Adverse reaction: Tremor (Sprague-Dawley rats [1]; [22]): 3
- ED50 (Sprague-Dawley rats [2]; Rattus norvegicus, LORR in rats, tail vein, brackets = 95% confidence limit): 0.75 mg/kg
- Minimal lethal dose (Sprague-Dawley rats [2]; rats): 12.75 mg/kg
- inhibitory effect on the circulatory function (MAP, HR) [3]: almost no inhibitory effect on the circulatory function
- Corticosterone as an indicator to determine the presence of inhibition (H295R cell line [4]): 2
- Cortisol as an indicator to determine the presence of inhibition (H295R cell line [4]): 2
- EC50 (H295R cell line [4]; [23]): > 10 nM
- EC50 (H295R cell line [4]; read-out: EC50 (Cortisol)): > 1 nM
- ED50 (Sprague-Dawley rats [5]): 0.74 mg/kg
- effect on the circulatory function (MAP, HR) [6]: slight inhibitory effect on the circulatory function after administration, but soon rises to near the baseline
- ED50 (Sprague-Dawley rats [7]): 0.74 mg/kg
- After the infusion is stopped: Righting reflex recovery time (SD rats [8]; [24]): 15 to 20 min
- Recovery time after stopping infusion (SD rats [8]; [24]): 30 to 40 min
- Types and incidence of adverse reactions: Hindlimb rigidity (SD rats [8]; [25]): Hindlimb rigidity(2/6)
- Types and incidence of adverse reactions: Myoclonus (SD rats [8]; [25]): 4/6
- Types and incidence of adverse reactions: Tongue stretching (SD rats [8]; [25]): Tongue stretching(2/6),
- Types and incidence of adverse reactions: Tremor (SD rats [8]; [25]): 6/6
- Sedation onset time (SD rats [8]; [26]): <5 min
- inhibitory effect on the circulatory function (MAP, HR) [9]: almost no inhibitory effect on the circulatory function
- Onset time (Sprague-Dawley rats [10]; [21]): <30 s
- Adverse reaction: Convulsions (Sprague-Dawley rats [10]; [27]): 0
- Adverse reaction: Cough, broken-winded (Sprague-Dawley rats [10]; [27]): 0
- Adverse reaction: Euphoria (Sprague-Dawley rats [10]; [27]): 0
- Adverse reaction: Slower breathing, Tetany convulsion (Sprague-Dawley rats [10]; [27]): 0
- Adverse reaction: Systemic stiffness, Convulsions, Opisthotonus (Sprague-Dawley rats [10]; [27]): 0
- Adverse reaction: Tongue stretching (Sprague-Dawley rats [10]; [27]): 4
- Adverse reaction: Tremor (Sprague-Dawley rats [10]; [27]): 6
- Adverse reaction: the four limbs rigidity (Sprague-Dawley rats [10]; [27]): 0
- After the infusion is stopped: Righting reflex recovery time (SD rats [11]; [24]): 15 to 20 min
- Recovery time after stopping infusion (SD rats [11]; [24]): 30 to 40 min
- Types and incidence of adverse reactions: Hindlimb rigidity (SD rats [11]; [25]): Hindlimb rigidity(2/6)
- Types and incidence of adverse reactions: Myoclonus (SD rats [11]; [25]): 4/6
- Types and incidence of adverse reactions: Tongue stretching (SD rats [11]; [25]): Tongue stretching(2/6),
- Types and incidence of adverse reactions: Tremor (SD rats [11]; [25]): 6/6
- Sedation onset time (SD rats [11]; [26]): <5 min
- Recovery time after stopping infusion (Sprague-Dawley rats [12]; after 1 hour continuous infusion at 2 times the MIR, rats): 25 to 30 min
- Types and incidence of adverse reactions: Facial muscle twitching (Sprague-Dawley rats [12]; [25]): 4/6
- Types and incidence of adverse reactions: Tongue stretching (Sprague-Dawley rats [12]; [25]): Tongue stretching (5/6)
- Types and incidence of adverse reactions: Tremor (Sprague-Dawley rats [12]; [25]): Tremor (6/6), Facial
- Onset time (Sprague-Dawley rats [12]; continuous tail vein infusion at 2 times the MIR, emulsion, rats): 4 to 5 min
- Minimal lethal dose (Sprague-Dawley rats [13]): 13.8 mg/kg
- Minimal lethal dose (Sprague-Dawley rats [14]): 13.8 mg/kg
- effect on the circulatory function (MAP, HR) [15]: slight inhibitory effect on the circulatory function after administration, but soon rises to near the baseline
- effect on the synthesis of adrenal cortex hormone (serum corticosterone) (adrenal cortex function [16]): obvious inhibitory effect on adrenal cortex function
- inhibition of 11β-Hydroxylase (11β-Hydroxylase): can inhibit the key enzymes in the synthesis pathway of adrenocortical hormone
- Recovery time after stopping infusion (Sprague-Dawley rats [17]; LORR maintained for 1 hour, 2 times the MIR): 25 to 30 min
- Onset time (Sprague-Dawley rats [17]; continuous infusion, 2 times the MIR): 4 to 5 min
- Types and incidence of adverse reactions (Sprague-Dawley rats [17]; continuous infusion, (animals affected/animals)): Tonguestretching(5/6); also recorded: Tremor(6/6), Facial; also recorded: muscle twitching (4/6)
- Corticosterone as an indicator to determine the presence of inhibition (H295R cell line [18]): 2
- Cortisol as an indicator to determine the presence of inhibition (H295R cell line [18]): 2
- EC50 (H295R cell line [18]; [23]): > 10 nM
- EC50 (H295R cell line [18]; read-out: EC50 (Cortisol)): > 1 nM
- ED50 (Sprague-Dawley rats [19]; Rattus norvegicus): 0.75 mg/kg
- Minimal lethal dose (Sprague-Dawley rats [19]; rats): 12.75 mg/kg
- effect on the synthesis of adrenal cortex hormone (serum corticosterone) (adrenal cortex function [20]): obvious inhibitory effect on adrenal cortex function
